Laboratory results as given in patent US20190071670A1, “Methods Of Treatment For Alpha-1 Antitrypsin Deficiency” (Arrowhead Pharmaceuticals, Inc., priority 2016, published 2019).

Experiments:
hAAT mRNA = assay: Liver hAAT mRNA levels in PiZ mice (RT-qPCR); type: in vivo, human (expressed in PiZ mice); settings: for hAAT mRNA in liver reduced: 6 month old female PiZ mice, single IV 8 mg/kg + 8 mg/kg MLP delivery polymer; for Average relative mRNA level (hAAT) / hAAT mRNA level: PiZ mice liver; for Average relative mRNA level (hAAT): one injection 8 mg/kg + 8 mg/kg MLP delivery polymer; for hAAT mRNA level: single IV 6 mg/kg with 6 mg/kg MLP delivery polymer, relative to mouse β-actin mRNA
Procedure: Compositions comprising double-stranded AAT expression-inhibiting oligomeric compounds were administered to PiZ mice. PiZ mice harbor the human PiZ AAT mutant allele and model human AATD (Carlson et al. Journal of Clinical Investigation 1989). […] Liver hAAT mRNA production was measured at days 3 and 10. Reduced mRNA levels correlated with decreased serum hAAT protein levels, except that mRNA reduction preceded protein reduction by a few days. The level of liver hAAT mRNA production was measured at day 3 and day 10 following a single dose of AAT RNAi agent with MLP delivery polymer in PiZ mice. A sustained decrease in liver hAAT mRNA levels was observed that correlated with the decrease observed in serum hAAT protein levels.
(§1) Human AAT protein levels in serum were monitored for 29 days. At the indicated times, blood samples were collected and assayed for hAAT by ELISA. Day 1 samples were collected prior to trigger administration. For mRNA analysis, 3-4 mice were euthanized at each of days 3, 8, 15, 22, and 29. For euthanized mice, cardiac stick were performed for serum isolation for AAT ELISA (200 μl serum). Half of the left lateral liver lobe was collected and snap-freeze in liquid nitrogen for RNA isolation. The remainder of the left lobes were embedded into paraffin blocks for PAS-D staining with hematoxylin as counter-stain. Serum hAAT levels in mice given AAT Duplex Pair SEQ ID NO: 5/6 were 95% reduced on day 8 and remained reduced to day 29, at which time they were 79% reduced. Mice given AAT Duplex Pair SEQ ID NO: 5/6 were euthanized at either day 3, 8, 15, 22 or 29. Mice given saline or Luciferase siRNA control (SEQ ID 7/8) were euthanized on day 29. Levels of hAAT mRNA in the livers were measured by RT-qPCR. The hAAT mRNA in mice given AAT Duplex Pair SEQ ID NO: 5/6 was reduced by 97% on day 3 and remained reduced on day 29, at which time levels were 56% reduced. The size of the globules and the area of the liver covered by globules was digitally quantitated from liver specimens stained with PAS-D. Duplex Pair SEQ ID NO: 5/6 treated mice had 70% smaller globules at day 15 and 62% smaller globules at day 29. The area of the liver covered with globules was 83% reduced on day 15 and 72% reduced on day 29 (FIG. 5).

Z-AAT globules = assay: PAS-D staining and digital quantitation of Z-AAT globules in PiZ mouse liver; type: in vivo, human (expressed in PiZ mice); settings: for area of the liver covered with globules reduced / smaller globules: 6 month old female PiZ mice, single IV 8 mg/kg + 8 mg/kg MLP delivery polymer
Procedure: (§2) AAT RNAi agent was administered to PiZ mice. Each mouse received a biweekly administration of an intravenous (IV) dose of 8 mg/kg AAT RNAi agent with 8 mg/kg of MLP delivery polymer for 8 weeks. Mice were bled weekly to monitor hAAT levels in serum and were sacrificed on day 57 after administration of AAT RNAi agent with MLP delivery polymer. Liver samples were harvested and fixed in 10% neutral-buffered formalin and embedded in paraffin. Inflammatory infiltration was assessed by H&E staining. […] PiZ mice injected biweekly with saline had significant globule accumulation as well as inflammatory infiltration around damaged or dead hepatocytes. Aggregation of Z-hAAT was visualized by performing diastase-resistant periodic acid Schiff (PAS-D) staining on liver sections. Diastase digestion of glycogen prior to performing a PAS stain allows positive staining of Z-AAT protein accumulation, or “globules”. […] The number of globules, the size of the globules and the area of the liver covered by globules was digitally quantitated from liver specimens stained with PAS-D. Mice treated with AAT RNAi agent had 85% fewer globules, 85% smaller globules, and 96% less area of the liver covered with globules than saline-injected controls (FIG. 3).
as §1

Z-hAAT [1] = assay: Semi-quantitative Western blot of soluble (monomer) and insoluble (polymer) Z-hAAT in PiZ mouse liver; type: in vivo, human (expressed in PiZ mice)
Procedure: A modified western blot protocol was used to separate the soluble and insoluble Z-hAAT fractions under non-denaturing conditions as previously described (Mueller et al. Molecular Therapy 2012).
PiZ mice treated biweekly with 8 mg/kg AAT RNAi agent for 32 weeks were compared with mice at start of study (baseline) and control mice injected for 32 weeks with saline vehicle. Monomeric and polymeric Z-hAAT protein in the livers of these mice were compared by semi-quantitative Western blotting (FIG. 7). […] Monomeric Z-AAT was reduced by 90% and polymeric Z-AAT was reduced by 48% in the AAT RNAi agent treated mice (p<0.0001).
One animal from each of Groups 2, 3, and 4 died prior to completion of the study. After sacrifice, monomeric and polymeric Z-hAAT protein in the livers of these mice were compared by semi-quantitative Western blotting over a course of 3 separate runs. Western blot Run 1 included six mice from Group 1, four mice from Group 2, and five mice from Group 4. Western blot Run 2 includes three mice from Group 1, six mice from Group 3 and 5 mice from Group 5. Western blot Run 3 includes three mice from Group 1, 2 mice from Group 4, 2 mice from Group 5, 7 mice from Group 6.

[2] = test system: liver morphology of PiZ mice; assay: Liver histology (H&E) of PiZ mice; type: in vivo
Procedure: as §2
Baseline mice had significant globule accumulation with globules that were 5-10 microns in diameter, compressed nuclei, apoptosis and inflammatory cell infiltration. Saline treated mice had significant globule accumulation with globules that were 25-35 microns in diameter, compressed nuclei, and inflammatory cell infiltration.

Z-hAAT [3] = assay: Semi-quantitative Western blot of soluble (monomer) and insoluble (polymer) Z-hAAT in PiZ mouse liver; type: in vivo, human (expressed in PiZ mice); settings: PiZ mice liver; four biweekly IV doses 8 mg/kg with 8 mg/kg MLP delivery polymer for 8 weeks
[4] = PiZ mice, four biweekly IV doses 8 mg/kg with 8 mg/kg MLP delivery polymer over 8 weeks, PAS-D
[5] = Western blot Run 1, Group 4 (n = 5): male PiZ mice, 8 mg/kg + 4 mg/kg MLP, 20 × q2w, euthanized Week 39
[6] = male PiZ mice liver, biweekly 8 mg/kg (with MLP) for 32 weeks, p<0.0001
[7] = PiZ mice, AAT RNAi agent + MLP treated, n = 16
[8] = male PiZ mice, biweekly AAT RNAi agent with MLP (Example 9)

Duplex Pair SEQ ID NO: 5/6: double-stranded AAT RNAi agent: modified antisense strand SEQ ID NO: 5 annealed to Chol-TEG sense strand SEQ ID NO: 6 (antisense TGGAACUUGGUGAUGAUAUTT; sense UAUAUAUCAUCACCAAGUUCCAT; Chol-TEG on sense strand; chemical modifications; antisense strand of dsRNA; modified_base 7 /mod_base = “2′-3′ seco corresponding nucleotide”; modified_base 2,4,6,8,10,12,14,16,18 /mod_base = “2′-deoxy-2′-fluoro corresponding nucleoside”; modified_base 3,5,9,11,13,15,17,19 /mod_base = “2′-O-methyl corresponding nucleoside”; modified_base 21 /mod_base = “5′-phosphorothioate corresponding nucleotide”; sense strand of dsRNA; modified_base 2 /mod_base = “2′-hydroxy corresponding nucleoside”; modified_base 4,6,8,10,12,14,16,18,20,22 /mod_base = “2′-deoxy-2′-fluoro corresponding nucleoside”; …)
hAAT mRNA in liver reduced (hAAT mRNA; day 3): 97%
hAAT mRNA in liver reduced (hAAT mRNA; day 29): 56%
Average relative mRNA level (hAAT) (hAAT mRNA; Day 3): 0.030
Average relative mRNA level (hAAT) (hAAT mRNA; Day 8): 0.032
Average relative mRNA level (hAAT) (hAAT mRNA; Day 15): 0.158
Average relative mRNA level (hAAT) (hAAT mRNA; Day 22): 0.221
Average relative mRNA level (hAAT) (hAAT mRNA; Day 29): 0.439
hAAT mRNA level (hAAT mRNA; day 3): 0.025 ± 0.02
hAAT mRNA level (hAAT mRNA; day 10): 0.055 ± 0.02
area of the liver covered with globules reduced (Z-AAT globules; day 15): 83%
smaller globules (Z-AAT globules; day 15): 70%
area of the liver covered with globules reduced (Z-AAT globules; day 29): 72%
smaller globules (Z-AAT globules; day 29): 62%
fewer globules (number of globules) than saline-injected controls (Z-AAT globules; [4]): 85%
less area of the liver covered with globules than saline-injected controls (Z-AAT globules; [4]): 96%
smaller globules (size of the globules) than saline-injected controls (Z-AAT globules; [4]): 85%
Z-hAAT monomeric protein, Average (Standard deviation) (Z-hAAT [1]; [5]): 71.4 (15.6)
Z-hAAT monomeric protein, Average Normalized to Baseline (Group 1) (Z-hAAT [1]; [5]): 0.126
Z-hAAT monomeric protein, Average Normalized to Saline (Group 2) (Z-hAAT [1]; [5]): 0.152
Z-hAAT polymeric protein, Average (Standard deviation) (Z-hAAT [1]; [5]): 1809.1 (932.5)
Z-hAAT polymeric protein, Average Normalized to Baseline (Group 1) (Z-hAAT [1]; [5]): 0.419
Z-hAAT polymeric protein, Average Normalized to Saline (Group 2) (Z-hAAT [1]; [5]): 0.238
Z-AAT polymer burden and diseased liver morphology (Z-hAAT [1]; male PiZ mice 11-17 weeks old, biweekly 4, 8 or 12 mg/kg with MLP delivery polymer (2:1) for 16, 24 or 32-33 weeks): a reduction in the Z-AAT polymer burden and a reduction in the diseased liver morphology
Monomeric Z-AAT reduced (Z-hAAT [1]; [6]): 90%
polymeric Z-AAT reduced (Z-hAAT [1]; [6]): 48%
Score: Inflammatory foci, Moderate (number of animals) [2, 7]: 11
Score: Inflammatory foci, None (number of animals) [2, 7]: 5
Score: Inflammatory foci, Severe (number of animals) [2, 7]: 0
Score: Compressed nuclei (animals/total) ([2]; PiZ mice, AAT RNAi agent + MLP treated, n = 16, baseline 7/12, saline 13/13): 3/16
Liver morphology and inflammatory infiltration (H&E staining) ([2]; PiZ mice, biweekly IV 8 mg/kg with 8 mg/kg MLP delivery polymer for 8 weeks, day 57): normal morphology, no detectably inflammatory infiltrate and very rare, small Z-hAAT globules
compressed nuclei [2, 8]: fewer compressed nuclei than either baseline or saline-treated mice
inflammatory infiltration [2, 8]: no inflammatory infiltration
globule diameter ([2]; male PiZ mice, biweekly AAT RNAi agent with MLP (Example 9), baseline 5-10, saline 25-35 microns): 7-10 microns
globule accumulation ([2]; male PiZ mice, biweekly AAT RNAi agent with MLP (Example 9), baseline and saline: significant): minimal to moderate
reduction in insoluble Z-hAAT compared to saline (Z-hAAT [3]): 79%
reduction in soluble Z-hAAT compared to saline (Z-hAAT [3]): > 99%
